Biological target: Insulin-like growth factor 1 receptor (Homo sapiens, UniProt P08069)
Experiment: Inhibition of human IGF1R kinase domain (M954 to C1367 residues) tri-phosphorylated enzyme form expressed in baculovirus based expression system using poly-EY peptide incubated for 2 hrs by luciferase-luciferin coupled chemiluminescent assay

Sequence of Insulin-like growth factor 1 receptor (P08069 31-736 limits assumed): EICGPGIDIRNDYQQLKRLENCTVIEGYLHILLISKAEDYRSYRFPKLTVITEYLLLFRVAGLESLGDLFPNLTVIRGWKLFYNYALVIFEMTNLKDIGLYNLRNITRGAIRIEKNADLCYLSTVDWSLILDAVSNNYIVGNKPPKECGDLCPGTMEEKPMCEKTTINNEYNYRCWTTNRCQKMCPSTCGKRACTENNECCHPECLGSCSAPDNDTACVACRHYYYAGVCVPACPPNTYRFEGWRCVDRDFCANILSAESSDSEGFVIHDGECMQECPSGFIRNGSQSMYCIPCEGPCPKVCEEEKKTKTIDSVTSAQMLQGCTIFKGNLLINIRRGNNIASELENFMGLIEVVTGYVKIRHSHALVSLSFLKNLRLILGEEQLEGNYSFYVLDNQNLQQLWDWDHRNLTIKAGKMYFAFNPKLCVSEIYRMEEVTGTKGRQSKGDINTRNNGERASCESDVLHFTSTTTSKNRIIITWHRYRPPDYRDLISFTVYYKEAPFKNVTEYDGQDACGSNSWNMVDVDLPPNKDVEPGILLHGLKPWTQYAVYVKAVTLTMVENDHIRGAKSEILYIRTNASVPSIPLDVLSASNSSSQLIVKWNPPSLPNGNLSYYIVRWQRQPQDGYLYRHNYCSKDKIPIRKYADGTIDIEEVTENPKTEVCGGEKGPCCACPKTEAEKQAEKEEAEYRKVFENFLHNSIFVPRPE
Sequence of Insulin-like growth factor 1 receptor (P08069 741-1367 limits assumed): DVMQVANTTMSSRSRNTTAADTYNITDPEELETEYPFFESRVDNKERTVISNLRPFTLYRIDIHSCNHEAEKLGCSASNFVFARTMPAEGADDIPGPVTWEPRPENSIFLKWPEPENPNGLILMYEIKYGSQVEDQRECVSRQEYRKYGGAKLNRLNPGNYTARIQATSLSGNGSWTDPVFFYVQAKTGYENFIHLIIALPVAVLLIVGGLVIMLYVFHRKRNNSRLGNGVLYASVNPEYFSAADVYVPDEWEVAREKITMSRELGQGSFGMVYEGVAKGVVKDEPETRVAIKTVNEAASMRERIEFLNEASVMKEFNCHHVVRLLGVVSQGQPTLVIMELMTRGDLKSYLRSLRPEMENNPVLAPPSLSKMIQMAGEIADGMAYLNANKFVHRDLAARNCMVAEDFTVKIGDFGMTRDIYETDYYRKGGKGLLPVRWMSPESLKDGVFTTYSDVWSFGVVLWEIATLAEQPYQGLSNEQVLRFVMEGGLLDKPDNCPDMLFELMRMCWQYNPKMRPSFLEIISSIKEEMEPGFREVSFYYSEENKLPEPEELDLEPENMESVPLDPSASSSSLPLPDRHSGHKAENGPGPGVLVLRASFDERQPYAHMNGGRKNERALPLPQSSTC

- IC50: ≥ 5 µM
Compound: COc1cc(Nc2nc(C)cc(Nc3cc(C4CC4)n[nH]3)n2)cc([N+](=O)[O-])c1

— ChEMBL document CHEMBL3882726, “Pyrimidine Derivatives As Kinase Modulators and Method of Use” (2008)
